Reference: US12377112B2, “Methods of treating neurocognitive disorders, chronic pain and reducing inflammation” (priority 2019, dated 2025)

Assays:
healthy participants = experiment: Phase 1 study: Rapid Visual Information Processing (RVPA); assay type: in vivo, human; settings: Treatment V6 Day 28 (remote)
From the text: In some embodiments, the Rapid Visual Information Processing (RVP) test is utilized to evaluate the safety and efficacy of psilocybin. The RVP is a measure of sustained attention outputting measures of response accuracy, target sensitivity and reaction times. In this test, the study subject is required to monitor a stream of digits from 2 to 9 for specific sequences (e.g., 3-5-7) and to acknowledge detection of the sequence by touching the on-screen response button as quickly as possible after presentation of the third digit. Digits are presented pseudorandomly to create the possibility of ‘false alarm’ responses in which the first 2 digits of a sequence are not followed by a true target, e.g., when 3 is followed by a 5, but not then by a 7. In order to complete the task successfully study subjects must sustain attention to the white box in which the digits appear. Performance on this task is measured by the speed of response to the presentation of the final digit of a target, as well as the study subject's ability to detect specified sequences. […]
To assess the effects of psilocybin on cognitive processing, a clinical trial testing psilocybin in healthy participants was performed. […] Rapid visual information processing (RVP), a sensitive measure of sustained attention, was assessed twice prior to dosing (Day 0): during screening (Day −2) and at baseline (Day −1). […]

healthy subjects = experiment: Phase 1 study: Positive and Negative Affect Schedule (PANAS); assay type: in vivo, human; settings: for PANAS-Negative, change from baseline, LS mean / PANAS-Positive, change from baseline, LS mean: Post-Treatment Day 0
From the text: In some embodiments, the Positive and Negative Affect Schedule (PANAS) is used to evaluate the safety and/or efficacy of psilocybin. The PANAS measures the acute emotional drug effects and comprises 2 mood scales that measure positive and negative affect. Positive affect refers to the propensity to experience positive emotions and interact with others positively. Negative affect involves experiencing the world in a more negative way. Subjects respond to 10 questions associated with negative affect and 10 questions associated with positive affect. The questions are scaled using a 5-point scale that ranges from “slightly or not at all (1)” to “extremely (5)”. A total higher score on the positive affect questions indicates more of a positive effect while a lower score on the negative affect questions indicates less of a negative affect. In some embodiments, after treating according to the methods of the disclosure, a subject experiences a decrease in negative affect score of the PANAS, between about 5% and about 100%, for example about 5%, about 10%, about 15%, about 20%, about 25%, about 30%, about 35%, about 40%, about 45%, about 50%, about 55%, about 60%, about 65%, about 70%, about 75%, about 80%, about 85%, about 90%, about 95%, or about 100%, compared to prior to treatment. In some embodiments, after treating according to the methods of the disclosure, a subject experiences an increase in positive affect score of the PANAS, between about 5% and about 100%, for example about 5%, about 10%, about 15%, about 20%, about 25%, about 30%, about 35%, about 40%, about 45%, about 50%, about 55%, about 60%, about 65%, about 70%, about 75%, about 80%, about 85%, about 90%, about 95%, or about 100%, about 110%, about 120%, about 130%, about 140%, about 150%, about 160%, about 170%, about 180%, about 190%, about 200%, about 210%, about 220%, about 230%, about 240%, about 250%, about 260%, about 270%, about 280%, about 290%, or about 300%, or more, compared to prior to treatment.
The effects of psilocybin usually started about 20 to 30 min after administration, becoming most intense in the first 90 to 120 min and gradually subsiding in about 5 to 6 hours. The subjects were asked to remain in the room for the duration of the session regardless of the intensity of the effects, preferably lying down and mostly silent unless they have a concern or need to communicate a discomfort or seek reassurance from the therapist, or use the restroom. A light meal and fruit were available for the subject after the session. After the acute effects of study drug administration had subsided, all subjects were assessed for safety and asked to complete the following assessments: PANAS and 5D-ASC. Medications used, if any, during the study drug administration session, and adverse events were recorded. The subjects also discussed their psilocybin experience with their therapist. The subject was discharged 6 to 8 hours post dose when, in the opinion of the investigator, the acute effects of psilocybin were resolved. After the acute effects of study drug administration subsided, subjects returned home accompanied by a family member, friend, or chaperone. The therapists checked with the subjects by phone at the end of the day to ensure that the subject arrived home safely.
The Positive and Negative Affects Schedule (PANAS) score was also evaluated to measure the effect of psilocybin.

## CN(C)CCc1c[nH]c2cccc(OP(=O)(O)O)c12 [Psilocybin, psilocybin]
Healthy participants; 10 mg single oral
  RVPA difference of least squares mean compared to placebo group, LS mean Estimate: 0.01096
Healthy participants; 25 mg single oral
  RVPA difference of least squares mean compared to placebo group, LS mean Estimate: 0.01225
Healthy subjects; 25 mg, baseline to day of dosing
  PANAS negative affect, mean increase: 1.3
Healthy subjects; Psilocybin 10 mg
  PANAS-Negative, change from baseline, LS mean: −0.6
  PANAS-Positive, change from baseline, LS mean: 0.7
Healthy subjects; Psilocybin 25 mg
  PANAS-Negative, change from baseline, LS mean: 1.3
  PANAS-Positive, change from baseline, LS mean: −0.4
